Measured values reported in ChEMBL document CHEMBL3988442, “University of Dundee, Small-Polar-MMV Screening Library” (2021).
“And” between values parts separate entries of the source, which are not always exact repeats. Equal entries are not always repeated.

Assays:
[1] = biological target: AMP-activated protein kinase, AMPK; assay: AMP-dependent Kinase enzyme assay. An in vitro enzyme assay that detects ADP turnover that is directly proportional to AMPK activity. This uses naive AMPK that is activated during the assay with MK-8722; type: functional, Homo sapiens
Leishmania donovani = assay: Leishmania intramacrophage assay; type: functional, organism-based; conditions: for IC50: Leishmania donovani
Tryptophan--tRNA ligase = Tryptophan--tRNA ligase (Mycobacterium tuberculosis (strain ATCC 25618 / H37Rv), UniProt P9WFT3); assay: Biochemical assay for Mt-TrpRS; type: functional
Trypanosoma brucei = assay: Trypanosoma brucei 72 hour study; type: functional, organism-based; conditions: for IC50: Trypanosoma brucei, 72 h
[2] = microbe, parasite or virus in culture; conditions: Mycobacterium tuberculosis, 96 h, read-out: pIC50 (converted)
[3] = microbe, parasite or virus in culture; conditions: Mycobacterium tuberculosis, 72 h, read-out: pIC50 (converted)
[4] = In vitro enzyme assay to detect hydrolysis of chlorophenol red-beta-D-[…] directly proportional to the number of Toxoplasma stably expressing beta-galactosidase; type: functional, organism-based, Toxoplasma gondii; conditions: for IC50: Toxoplasma gondii
Histidine--tRNA ligase = biological target: T1, Histidine--tRNA ligase (Leishmania infantum, UniProt A4I591); assay: Leishmania infantum Histidine tRNA synthetase (LdHisRS); type: functional
T1 sequence (A4I591 whole entry): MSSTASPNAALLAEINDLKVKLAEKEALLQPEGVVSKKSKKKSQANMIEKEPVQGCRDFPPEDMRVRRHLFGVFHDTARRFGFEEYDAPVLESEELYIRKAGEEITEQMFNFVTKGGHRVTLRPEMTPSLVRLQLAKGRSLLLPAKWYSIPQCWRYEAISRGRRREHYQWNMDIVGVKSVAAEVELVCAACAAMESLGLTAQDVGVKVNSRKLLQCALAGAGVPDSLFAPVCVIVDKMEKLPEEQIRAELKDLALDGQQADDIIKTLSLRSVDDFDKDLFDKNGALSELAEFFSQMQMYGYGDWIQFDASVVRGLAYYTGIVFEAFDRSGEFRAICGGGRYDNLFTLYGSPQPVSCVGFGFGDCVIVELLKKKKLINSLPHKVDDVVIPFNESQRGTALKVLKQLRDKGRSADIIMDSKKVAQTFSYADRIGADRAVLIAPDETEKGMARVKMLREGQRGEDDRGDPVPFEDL

[5] = biological target: T2, Coenzyme A biosynthesis bifunctional protein CoaBC (Mycobacterium tuberculosis (strain ATCC 25618 / H37Rv), UniProt P9WNZ1); assay: Biomol Green assay for MtCoaBC inhibitor, OD650 read; type: functional
T2 sequence (P9WNZ1 whole entry): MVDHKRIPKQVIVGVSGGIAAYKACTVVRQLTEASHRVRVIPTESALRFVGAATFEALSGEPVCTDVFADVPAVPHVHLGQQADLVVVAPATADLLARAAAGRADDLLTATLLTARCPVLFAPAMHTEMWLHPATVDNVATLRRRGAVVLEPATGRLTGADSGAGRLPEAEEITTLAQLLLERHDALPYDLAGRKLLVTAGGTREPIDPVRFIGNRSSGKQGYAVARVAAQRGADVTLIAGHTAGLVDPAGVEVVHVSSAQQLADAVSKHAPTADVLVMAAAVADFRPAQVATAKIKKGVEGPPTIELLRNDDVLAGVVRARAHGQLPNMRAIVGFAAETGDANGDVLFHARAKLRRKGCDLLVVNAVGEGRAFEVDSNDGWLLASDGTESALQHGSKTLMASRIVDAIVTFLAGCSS

Plasmodium falciparum = assay: Calibr Malaria Delayed Death Assay SOP; type: functional, organism-based

Sequence of Tryptophan--tRNA ligase (P9WFT3 whole entry): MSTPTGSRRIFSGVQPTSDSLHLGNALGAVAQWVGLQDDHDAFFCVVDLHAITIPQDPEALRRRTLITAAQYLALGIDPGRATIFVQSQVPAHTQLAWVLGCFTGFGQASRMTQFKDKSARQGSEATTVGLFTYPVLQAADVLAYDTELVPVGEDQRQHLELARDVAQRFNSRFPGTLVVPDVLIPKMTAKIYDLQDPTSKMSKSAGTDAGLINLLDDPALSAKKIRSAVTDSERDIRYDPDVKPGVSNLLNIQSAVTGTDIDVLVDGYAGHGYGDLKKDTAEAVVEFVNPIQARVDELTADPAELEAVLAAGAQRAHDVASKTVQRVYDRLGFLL

Cc1nc(N2CCN(C)CC2)ncc1C(=O)N1CCC(O)(CO)CC1
pIC50 [1]: < 4

O=C(CN1CC(n2cccn2)C1)NCCc1c[nH]c2ccccc12
pIC50 [1]: < 4

O=C(NCCNc1ccc(C(F)(F)F)cn1)c1cncc(Br)c1
pIC50 [1]: 4.385 and < 4

COc1cc(CNC2CCCc3c2cnn3C)cc(OC)c1.Cl (centres undefined)
pIC50 [1]: < 4

Cc1cc(-c2cnc(NC3CC3)nc2-c2ccoc2C)on1
pIC50 [1]: < 4

O=C1CN(C(=O)c2cc3ccc(Br)cc3[nH]2)CCN1
pIC50 [1]: < 4

CN(C)S(=O)(=O)NC1CCCc2c1cnn2-c1ccc(C(C)(C)C)cc1 (centres undefined)
pIC50 [1]: < 4

CC(C)c1cc(C(=O)NCCc2nc(-c3cccnc3)n[nH]2)[nH]n1
pIC50 [1]: 4.471 and 4.569 and 4.528 and 4.581

Cc1nc(C2(O)CCCNCC2)sc1CCOc1ccc(F)c(F)c1.Cl (centres undefined)
pIC50 (Leishmania donovani): 4.936 | IC50 (Leishmania donovani): 11.6 µM | IC50 (Tryptophan--tRNA ligase): > 195 µM | pIC50 (Trypanosoma brucei): 5.175 and 5.131 | IC50 (Trypanosoma brucei): 6.99 µM

Cl.Cl.c1ccc(OC[C@@H]2CCC[C@@]23CNCCO3)nc1
pIC50 [1]: < 4

CCc1cc(=O)[nH]c(-n2nc(C3CC3)cc2NC(=O)C2CC2)n1
pIC50 (Leishmania donovani): 4.573 | IC50 (Leishmania donovani): 29.8 µM | IC50 [2]: 11.4 µM | pIC50 (Trypanosoma brucei): 5.404 and 5.398 | IC50 (Trypanosoma brucei): 3.41 µM | IC50 [3]: 12.5 µM | pIC50 [4]: 5.904 | IC50 [4]: 1.58 µM

CN(C)c1nc2sc(C(=O)N3CCN(C(=O)OC(C)(C)C)CC3)cc2s1
pIC50 [1]: < 4

Cc1cc(-c2cnc(NC3CC3)nc2-c2ccoc2)on1
pIC50 [1]: < 4

CNC(=O)c1cccc(NC(=O)Cn2nc(-c3cccs3)oc2=O)c1
pIC50 [1]: < 4

CNc1nc(C(=O)N2CCCC(COc3ccc(F)cc3)C2)cs1 (centres undefined)
pIC50 [1]: < 4

CC1COCCN1Cc1nc(-c2cccs2)no1 (centres undefined)
pIC50 [1]: < 4

Nc1cc(N2CCC(c3cc(Cc4ccccc4)n[nH]3)CC2)ccn1
IC50 (Histidine--tRNA ligase): 69.6 µM and 73.8 µM | pIC50 (Leishmania donovani): 4.671 | IC50 (Leishmania donovani): 17.4 µM | pIC50 (Trypanosoma brucei): 5.138 and 5.184 | IC50 (Trypanosoma brucei): 6.85 µM | pIC50 [4]: 5.141 | IC50 [4]: 4.92 µM

CCc1csc(C2CCCN(C(=O)c3cnn(CC)c3)C2)n1 (centres undefined)
pIC50 [1]: < 4

Cc1ccsc1C(=O)N1CC(C(=O)NCC2CC2)C2(CCOCC2)C1 (centres undefined)
pIC50 [1]: < 4

Cc1cc(-c2cnc(NC3CCCC3)nc2-c2ccoc2)on1
pIC50 [1]: < 4

CN1CCC(c2n[nH]c(=O)n2-c2cccc(Cl)c2)CC1
pIC50 [1]: < 4

CC(C)COc1cncc(N2CCCN(c3ncccn3)CC2)n1
pIC50 [1]: < 4

FC1(F)CCN(Cc2cccnc2)CC12CCN(c1ccccc1)C2.O=C(O)C(F)(F)F.O=C(O)C(F)(F)F.O=C(O)C(F)(F)F (centres undefined)
IC50 (Histidine--tRNA ligase): 13.6 µM and 18.6 µM | IC50 [5]: > 30.2 µM | IC50 [2]: 12.5 µM | pIC50 (Trypanosoma brucei): 5.234 and 5.17 | IC50 (Trypanosoma brucei): 6.05 µM | pIC50 (Plasmodium falciparum): 5.955 | IC50 (Plasmodium falciparum; Plasmodium falciparum): 1.16 µM | IC50 [3]: 43.8 µM

Cn1ncc2c(NC3CCC3)nc(-c3ccncc3)nc21
pIC50 [1]: < 4

Cc1cc(-c2cnc(NC3CCCC3)nc2-c2ccco2)on1
pIC50 [1]: 4.667 and < 4.31
